The results in this text go back to patent US12692264B2, “Pyrimidine or pyridine derivative, preparation method therefor, and application thereof in pharmacy” (ABBISKO THERAPEUTICS CO., LTD., priority 2021, dated 2026).

Holding throughout (format): cell-based
The test system of assay [1] is A431 (EGFR-WT). Kind of assay: Cell proliferation study (CellTiter-Glo, 72 hrs), A431. The note with it: Homo sapiens, A-431, A431 cells, CTG, * = average of multiple measurements. The protocol: (§1) (I) Reagents and Materials
(§2) • Fetal bovine serum FBS (GBICO, Cat #10099-141); • CellTiter-Glo® luminescent cell viability assay kit (Promega, Cat #G7572); • Black transparent flat-bottom 96-well plate (Corning®, Cat #3603). (II) Instruments • SpectraMax multi-label microplate reader MD, 2104-0010A; • Carbon dioxide incubator, Thermo Scientific 3100 series; • Biological safety cabinet, Thermo Scientific, 1300 series model A2; • Inverted microscope, Olympus, CKX41SF; • Siemens refrigerator KK25E76T1. (III) Cell Lines and Culture Conditions
(§3) (IV) Experimental Procedures 1. Cell Culture and Inoculation: • (1) Cells in the logarithmic growth phase were harvested and counted using a […]. The cell viability was determined by the trypan blue dye exclusion method to ensure cell viability above 90%. • (2) The cell concentration was adjusted to reach a desired final density; 90 μL of cell suspension was added to a 96-well plate. • (3) The cells were incubated overnight in the 96-well plate at 37° C., 5% CO2 and with 95% humidity. 2. T0 Benchmark Data: • (1) 10 μL of PBS was added to each well of the TO plate containing the cells. • (2) The CTG reagent was thawed and the cell plate was equilibrated to room temperature for 30 min. • (3) An equal volume of CTG solution was added to each well. • (4) The cells were lysed by shaking on an orbital shaker for 5 min. • (5) The cell plate was left to stand at room temperature for 20 min to stabilize the fluorescence signal. • (6) The fluorescence signal values of TO were read. 3. Dilution and Addition of Compounds • (1) According to the compound information table, a corresponding volume of DMSO was added to the corresponding compound powder to prepare a 10 mM stock solution. • (2) A 1000-fold, 3.16-fold-diluted compound solution was prepared. • (3) The 1000× diluted compound solution was diluted 100-fold with PBS to prepare a 10-fold compound solution with a maximum concentration of 10 μM, including 9 concentrations, with 3.16-fold dilution, and 10 μL of the medicament solution was added to each well of the 96-well plate to seed the cells. Triplicate wells were set for each compound concentration, with a final concentration of DMSO being 0.1%. • (4) The cells were placed in the 96-well plate containing the medicament at 37° C., 5% CO2 and with 95% humidity, and cultured for 72 hrs before CTG analysis. 4. Fluorescence Signal Reading • (1) The CTG reagent was thawed and the cell plate was equilibrated to room temperature for 30 min. • (2) An equal volume of CTG solution was added to each well. • (3) The cells were lysed by shaking on an orbital shaker for 5 min. • (4) The cell plate was left to stand at room temperature for 20 min to stabilize the fluorescence signal. • (5) The fluorescence values were read. 5. Data Processing
(§4) Data were analyzed using GraphPad Prism 7.0 software and fitted data were regressed using non-linear S-curves to obtain dose-response curves from which IC50 values (in nM) were calculated.
A general note: Cellular ATP, detected with luciferase, serves as a proxy for viable cell number.

Assay [2] deals with Ba/F3 EGFR-D770-N771ins_SVD (Homo sapiens, UniProt P00533, DUP768-770, cells depend on it). The experiment in a line: Cell proliferation study (CellTiter-Glo, 72 hrs), Ba/F3 EGFR-D770-N771ins_SVD. The conditions noted are these: CTG, * = average of multiple measurements, read-out: Ba/F3 EGFR-D770-N771ins_SVD IC50. Here is the method:
as §1, §2, §3, §4

Assay [3] has as its target Ba/F3 EGFR-V769_D770insASV (Homo sapiens, UniProt P00533, DUP767-769, cells depend on it). The experiment in a line: Cell proliferation study (CellTiter-Glo, 72 hrs), Ba/F3 EGFR-V769_D770insASV. The conditions noted are these: CTG, * = average of multiple measurements, read-out: Ba/F3 EGFR-V769_D770insASV IC50. The protocol: as §1, §2, §3, §4

Chain of Ba/F3 EGFR-V769_D770insASV (P00533 with tags, fused parts or gaps DUP767-769): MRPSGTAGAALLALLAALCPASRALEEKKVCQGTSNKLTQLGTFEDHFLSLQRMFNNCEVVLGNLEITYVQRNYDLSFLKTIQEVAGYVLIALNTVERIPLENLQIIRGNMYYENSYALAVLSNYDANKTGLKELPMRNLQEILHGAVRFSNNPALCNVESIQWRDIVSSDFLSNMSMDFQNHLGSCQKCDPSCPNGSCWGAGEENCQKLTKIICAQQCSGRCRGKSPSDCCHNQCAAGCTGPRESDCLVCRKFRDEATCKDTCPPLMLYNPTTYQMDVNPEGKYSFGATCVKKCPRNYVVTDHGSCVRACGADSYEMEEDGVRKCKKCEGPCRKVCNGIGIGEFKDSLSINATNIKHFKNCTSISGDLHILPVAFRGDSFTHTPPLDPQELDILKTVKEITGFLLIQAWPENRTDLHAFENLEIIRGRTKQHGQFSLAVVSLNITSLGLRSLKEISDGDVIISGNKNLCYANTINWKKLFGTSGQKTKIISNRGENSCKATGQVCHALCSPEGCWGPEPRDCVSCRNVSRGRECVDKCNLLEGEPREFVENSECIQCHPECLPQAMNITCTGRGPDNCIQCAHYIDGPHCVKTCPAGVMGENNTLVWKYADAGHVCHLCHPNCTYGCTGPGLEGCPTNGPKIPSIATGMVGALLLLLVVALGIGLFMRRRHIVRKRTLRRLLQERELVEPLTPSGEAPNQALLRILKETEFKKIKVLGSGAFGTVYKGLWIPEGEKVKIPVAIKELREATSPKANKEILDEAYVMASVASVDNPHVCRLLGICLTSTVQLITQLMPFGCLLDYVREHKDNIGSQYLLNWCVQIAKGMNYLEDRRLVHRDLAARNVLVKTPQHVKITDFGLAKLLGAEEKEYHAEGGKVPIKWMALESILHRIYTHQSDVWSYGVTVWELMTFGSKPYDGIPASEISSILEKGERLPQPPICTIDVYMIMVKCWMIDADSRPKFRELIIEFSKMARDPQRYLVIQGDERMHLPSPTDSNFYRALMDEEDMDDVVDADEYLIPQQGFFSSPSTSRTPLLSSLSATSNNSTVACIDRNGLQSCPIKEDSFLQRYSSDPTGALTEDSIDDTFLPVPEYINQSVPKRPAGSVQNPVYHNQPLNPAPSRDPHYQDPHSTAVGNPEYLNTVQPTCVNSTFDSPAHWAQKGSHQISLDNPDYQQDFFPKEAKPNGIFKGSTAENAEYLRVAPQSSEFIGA
Chain of Ba/F3 EGFR-D770-N771ins_SVD (P00533 with tags, fused parts or gaps DUP768-770): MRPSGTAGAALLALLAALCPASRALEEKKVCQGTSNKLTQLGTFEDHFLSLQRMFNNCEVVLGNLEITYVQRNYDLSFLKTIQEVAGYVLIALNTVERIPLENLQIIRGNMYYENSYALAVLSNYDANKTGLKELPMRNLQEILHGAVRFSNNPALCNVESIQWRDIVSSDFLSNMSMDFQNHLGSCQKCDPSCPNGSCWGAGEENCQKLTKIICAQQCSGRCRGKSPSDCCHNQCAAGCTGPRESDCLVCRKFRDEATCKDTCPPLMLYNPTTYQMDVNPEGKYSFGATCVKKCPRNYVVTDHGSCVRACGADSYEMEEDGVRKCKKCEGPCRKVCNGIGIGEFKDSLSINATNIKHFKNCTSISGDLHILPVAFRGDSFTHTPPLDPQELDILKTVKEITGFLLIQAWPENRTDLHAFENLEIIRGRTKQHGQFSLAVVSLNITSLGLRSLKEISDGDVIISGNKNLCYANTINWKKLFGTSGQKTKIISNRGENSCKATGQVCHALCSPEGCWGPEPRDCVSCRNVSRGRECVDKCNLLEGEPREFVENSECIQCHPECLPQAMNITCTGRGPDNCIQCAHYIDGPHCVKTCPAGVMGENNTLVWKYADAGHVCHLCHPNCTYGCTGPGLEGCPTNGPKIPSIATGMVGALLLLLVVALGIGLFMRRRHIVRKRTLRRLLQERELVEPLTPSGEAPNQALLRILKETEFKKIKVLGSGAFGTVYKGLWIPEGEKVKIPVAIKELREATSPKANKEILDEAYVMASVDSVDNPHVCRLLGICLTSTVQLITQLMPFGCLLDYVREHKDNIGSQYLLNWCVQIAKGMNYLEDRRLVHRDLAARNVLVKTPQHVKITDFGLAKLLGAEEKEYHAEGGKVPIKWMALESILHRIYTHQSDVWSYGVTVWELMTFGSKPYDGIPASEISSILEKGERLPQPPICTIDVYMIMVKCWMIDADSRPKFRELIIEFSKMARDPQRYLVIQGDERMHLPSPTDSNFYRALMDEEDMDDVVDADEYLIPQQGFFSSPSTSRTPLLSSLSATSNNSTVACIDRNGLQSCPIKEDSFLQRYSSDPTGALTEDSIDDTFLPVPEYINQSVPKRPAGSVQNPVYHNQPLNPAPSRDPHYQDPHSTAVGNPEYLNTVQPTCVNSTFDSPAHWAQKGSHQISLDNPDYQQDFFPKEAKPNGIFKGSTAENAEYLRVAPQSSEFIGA

As usually defined, the IC50 is the concentration that inhibits the measured activity by half. Regarding `C=CC(=O)Nc1cc(Nc2ncc(C(=O)OC(C)C)c(N3CC(C)(C)c4nc(C)ccc43)n2)c(OC)cc1N(C)CCN(C)C` [Example 1, isopropyl 2-((5-acrylamido-4-((2-(dimethylamino)ethyl)(methyl)amino)-2-methoxyphenyl)amino)-4-(3,3,5-trimethyl-2,3-dihydro-1H-pyrrolo[3,2-b]pyridin-1-yl)pyrimidine-5-carboxylate], in assay [1], the IC50 worked out at 105 nM. In addition, the results for the GI50 in assay [2] and in assay [3] were 7 nM and 10.4 nM, respectively.

In the case of `C=CC(=O)Nc1cc(Nc2ncc(C(=O)OC(C)C)c(N3CC(C)(C)c4ncccc43)n2)c(OC)cc1N(C)CCN(C)C` [Example 2, isopropyl 2-((5-acrylamido-4-((2-(dimethylami-no)ethyl)(methyl)amino)-2-methoxy-phenyl)amino)-4-(3,3-dimethyl-2,3-dihydro-1H-pyrrolo[3,2-b]pyridin-1-yl)pyrimidine-5-carboxylate], the IC50 in assay [1] is 479 nM. In addition, the GI50 in assay [2] was 26.8 nM; in assay [3], 35 nM.

As for `C=CC(=O)Nc1cc(Nc2ncc(C(=O)OC(C)C)c(N3CC(C)(C)c4ncccc43)n2)c(OC(F)F)cc1N(C)CCN(C)C` [Example 3, isopropyl 2-((5-acrylamido-2-(difluoromethoxy)-4-((2-(dimethylamino)ethyl)(methyl)ami-no)phenyl)amino)-4-(3,3-dimethyl-2,3-dibydro-1H-pyrrolo[3,2-b]pyridin-1-yl)pyrimidine-5-carboxylate], it took 371 nM to reach half-maximal inhibition in assay [1] (IC50). Also, the GI50 came to 23.2 nM in assay [2] and 33.1 nM in assay [3].

In the case of `C=CC(=O)Nc1cc(Nc2ncc(C(=O)OC(C)C)c(N3CC4(CCC4)c4nc(C)ccc43)n2)c(OC)cc1N(C)CCN(C)C` [Example 5, isopropyl 2-((5-acrylamido-4-((2-(dimethylami-no)ethyl)(methyl)amino)-2-methoxy-phenyl)amino)-4-(5′-methylspiro(cyclo-butane-1,3′-pyrrolo[3,2-b]pyridin)-1′(2′H)-yl)pyrimidine-5-carboxylate], the midpoint of inhibition in assay [1], the IC50, lay at 516 nM. For the same molecule, the GI50 in assay [2] stood at 15.8 nM; in assay [3], 30.4 nM.

Molecule `C=CC(=O)Nc1cc(Nc2ncc(C(=O)OC(C)C)c(N3CC4(CCC4)c4ncccc43)n2)c(OC(F)F)cc1N(C)CCN(C)C` [Example 6, isopropyl 2-((5-acrylamido-2-(difluoromethoxy)-4-((2-(dimethylamino)ethyl)(methyl)ami-no)phenyl)amino)-4-(spiro(cyclo-butane-1,3′-pyrrolo[3,2-b]pyridin)-1′(2′H)-yl)pyrimidine-5-carboxylate] returned a concentration for half-maximal inhibition (IC50) in assay [1] of 627 nM. Moreover, the figures for the GI50 in assay [2] and in assay [3] were 12.4 nM and 35.1 nM, respectively.

As for `C=CC(=O)Nc1cc(Nc2ncc(C(=O)OC(C)C)c(N3CC4(CCC4)c4ncccc43)n2)c(OC)cc1N(C)CCN(C)C` [Example 7, isopropyl 2-((5-acrylamido-4-((2-(dimethylami-no)ethyl)(methyl)amino)-2-methoxy-phenyl)amino)-4-(spiro(cyclobutane-1,3′-pyrrolo[3,2-b]pyridin)-1′(2′H)-yl)pyrimidine-5-carboxylate], in assay [1], inhibition was half-maximal at 735 nM (IC50). Besides, the results for the GI50 in assay [2] and in assay [3] were 18.8 nM and 29.9 nM, respectively.

As for `C=CC(=O)Nc1cc(Nc2ncc(C(=O)OC(C)C)c(N3CC(C)(C)c4nc(-c5cnn(C)c5)ccc43)n2)c(OC)cc1N(C)CCN(C)C` [Example 8, isopropyl 2-((5-acrylamido-4-((2-(dimethylami-no)ethyl)(methyl)amino)-2-methoxy-phenyl)amino)-4-(3,3-dimethyl-5-(1-methyl-1H-pyrazol-4-yl)-2,3-dihydro-1H-pyrrolo[3,2-b]pyridin-1-yl)pyrimidine-5-carboxylate], in assay [1], half-maximal inhibition (IC50) required 102 nM. Also, the figures for the GI50 in assay [2] and in assay [3] were 11 nM and 18.7 nM, respectively.

Take `C#Cc1ccc2c(n1)C(C)(C)CN2c1nc(Nc2cc(NC(=O)C=C)c(N(C)CCN(C)C)cc2OC)ncc1C(=O)OC(C)C` [Example 9, isopropyl 2-((5-acrylamido-4-((2-(dimethylamino)ethyl)(methyl)amino)-2-methoxyphenyl)amino)-4-(5-ethynyl-3,3-dimethyl-2,3-dihydro-1H-pyrrolo[3,2-b]pyridin-1-yl)pyrimidine-5-carboxylate]: the IC50 in assay [1] was 23.3 nM. Besides, the GI50 is 17.8 nM in assay [2] and 31.8 nM in assay [3].

In assay [1], `C=CC(=O)Nc1cc(Nc2ncc(C(=O)OC(C)C)c(N3CC4(CCC4)c4nc(-c5cnn(C)c5)ccc43)n2)c(OC)cc1N(C)CCN(C)C` [Example 10, isopropyl 2-((5-acrylamido-4-((2-(dimethylami-no)ethyl)(methyl)amino)-2-methoxy-phenyl)amino)-4-(5′-(1-methyl-1H-pyrazol-4-yl)spiro(cyclobutane-1,3′-pyrrolo[3,2-b]pyridin)-1′(2′H)-yl)pyrimidine-5-carboxylate] displayed an IC50 of 278 nM. For the same molecule, the figures for the GI50 in assay [2] and in assay [3] were 36.9 nM and 39.4 nM, respectively.

For `C=CC(=O)Nc1cc(Nc2ncc(C(=O)OC(C)C)c(N3CC(C)(C)c4nc(F)ccc43)n2)c(OC)cc1N(C)CCN(C)C` [Example 11, isopropyl 2-((5-acrylamido-4-((2-(dimethylami-no)ethyl)(methyl)amino)-2-methoxy-phenyl)amino)-4-(5-fluoro-3,3-dimethyl-2,3-dihydro-1H-pyrrolo[3,2-b]pyridin-1-yl)pyrimidine-5-carboxylate], the IC50 in assay [1] came to 828 nM. Also, the GI50 in assay [2] is 30.2 nM; in assay [3], 37.3 nM.

Take `C=CC(=O)Nc1cc(Nc2ncc(C(=O)OC(C)C)c(N3CC(C)(C)c4nc(C)ccc43)n2)c(OC)cc1N1CC[C@@H](N(C)C)C1` [Example 12, isopropyl (R)-2-((5-acrylamido-4-(3-(dimethyl-amino)pyrrolidin-1-yl)-2-methoxy-phenyl)amino)-4-(3,3,5-trimethyl-2,3-dihydro-1H-pyrrolo[3,2-b]pyridin-1-yl)pyrimidine-5-carboxylate]: the IC50 in assay [1] is 599 nM. Moreover, the results for the GI50 in assay [2] and in assay [3] were 18.5 nM and 36.9 nM, respectively.

In assay [1], `C=CC(=O)Nc1cc(Nc2ncc(C(=O)OC(C)C)c(N3CC(C)(C)c4nc(C)ccc43)n2)c(OC)cc1N(C)CCNC` [Example 15, isopropyl 2-((5-acrylamido-2-methoxy-4-(methyl (2-(methylamino)ethyl)amino)phenyl)amino)-4-(3,3,5-trimethyl-2,3-dihydro-1H-pyrrolo[3,2-b]pyridin-1-yl)pyrimidine-5-carboxylate] yielded an IC50 of 879 nM. The GI50 in assay [2] was 35 nM; in assay [3] it was 49.2 nM.

Take `C=CC(=O)Nc1cc(Nc2ncc(C(=O)OC(C)C)c(N3CC(C)(C)c4nc(C)ccc43)n2)c(OC)cc1N(C)CCN1CCCC1` [Example 66, isopropyl 2-((5-acrylamido-2-methoxy-4-(methyl(2-(pyrrolidin-1-yl)ethyl)amino)phenyl)amino)-4-(3,3,5-trimethyl-2,3-dihydro-1H-pyrrolo[3,2-b]pyridin-1-yl)pyrimidine-5-carboxylate]: the GI50 in assay [2] is 16.9 nM; in assay [3] it was 27.2 nM.

Take `[2H]C([2H])([2H])N(CCN(C([2H])([2H])[2H])C([2H])([2H])[2H])c1cc(OC)c(Nc2ncc(C(=O)OC(C)C)c(N3CC4(CC4)c4nc(C)ccc43)n2)cc1NC(=O)C=C` [Example 69, isopropyl 2-((5-acrylamido-4-((2-(bis(methyl-d3)amino)ethyl)(methyl-d3)amino)-2-methoxyphenyl)amino)-4-(5′-methylspiro(cyclopropane-1,3′-pyrrolo[3,2-b]pyridin)-1′(2′H)-yl)pyrimidine-5-carboxylate]: the GI50 came out at 26.9 nM in assay [2] and 35.2 nM in assay [3].
